Assay results published in ChEMBL document CHEMBL1201862, “PubChem BioAssay data set” (2004).
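Five compound concentrations were applied to cells in 96-well plates for 48 hours; endpoints were derived by simple linear interpolation of the resulting dose-response curve. Here, GI50 denotes the concentration required for 50% inhibition of growth.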 Activity calls are given as the source filed them. Cut-off read from the data, not from the text of the source: active = GI50 up to about 1.1 µM and inactive = higher.

Legend:
Assay in all cases: NCI anticancer screen, dose series, 48 h
SR = system: SR
HCC 2998 = system: HCC 2998
MOLT-4 = system: MOLT-4
SK-MEL-28 = system: SK-MEL-28
HOP-92 = system: HOP-92
IGROV-1 = system: IGROV-1
U-251 = system: U-251
PC-3 = system: PC-3
NCI-H460 = system: NCI-H460
HCT-15 = system: HCT-15
OVCAR-3 = system: OVCAR-3
BT-549 = system: BT-549
UACC-62 = system: UACC-62
RXF 393 = system: RXF 393
UO-31 = system: UO-31
SNB-19 = system: SNB-19
SF-539 = system: SF-539
UACC-257 = system: UACC-257
EKVX = system: EKVX
ACHN = system: ACHN
TK-10 = system: TK-10
SN12C = system: SN12C
CCRF-CEM = system: CCRF-CEM
KM12 = system: KM12
SK-OV-3 = system: SK-OV-3
A549 = system: A549
SF-268 = system: SF-268
786-0 = system: 786-0
NCI/ADR-RES = system: NCI/ADR-RES
DU-145 = system: DU-145
K562 = system: K562
MDA-MB-435 = system: MDA-MB-435
HT-29 = system: HT-29
A498 = system: A498
NCI-H226 = system: NCI-H226
MCF7 = system: MCF7
SK-MEL-5 = system: SK-MEL-5
SNB-75 = system: SNB-75
SW-620 = system: SW-620
M14 = system: M14
MDA-N = system: MDA-N
OVCAR-8 = system: OVCAR-8
OVCAR-5 = system: OVCAR-5
Hs-578T = system: Hs-578T
Malme-3M = system: Malme-3M
HCT-116 = system: HCT-116
RPMI-8226 = system: RPMI-8226
HOP-62 = system: HOP-62
NCI-H23 = system: NCI-H23
HL-60 = system: HL-60
SF-295 = system: SF-295
NCI-H522 = system: NCI-H522
MDA-MB-231 = system: MDA-MB-231
SK-MEL-2 = system: SK-MEL-2
OVCAR-4 = system: OVCAR-4
LOX IMVI = system: LOX IMVI
COLO 205 = system: COLO 205
CAKI-1 = system: CAKI-1

Measured: GI50

CON(C)C(=O)C(C)NC(=O)OCc1ccccc1 (stereo not given)
> 100 µM: HCT-15
inactive: SR > 100 µM | HCC 2998 > 100 µM | MOLT-4 > 100 µM | SK-MEL-28 > 100 µM | HOP-92 > 100 µM | IGROV-1 > 100 µM | U-251 > 100 µM | PC-3 > 100 µM | NCI-H460 > 100 µM | OVCAR-3 > 100 µM | BT-549 > 100 µM | UACC-62 > 100 µM | RXF 393 > 100 µM | UO-31 > 100 µM | SNB-19 > 100 µM | SF-539 > 100 µM | UACC-257 > 100 µM | EKVX > 100 µM | ACHN > 100 µM | TK-10 > 100 µM | SN12C > 100 µM | CCRF-CEM > 100 µM | KM12 > 100 µM | SK-OV-3 > 100 µM | A549 > 100 µM | SF-268 > 100 µM | 786-0 > 100 µM | NCI/ADR-RES > 100 µM | DU-145 > 100 µM | K562 > 100 µM | MDA-MB-435 > 100 µM | HT-29 > 100 µM | A498 > 100 µM | NCI-H226 > 100 µM | MCF7 > 100 µM | SK-MEL-5 > 100 µM | SNB-75 > 100 µM | SW-620 > 100 µM | M14 > 100 µM | MDA-N > 100 µM | OVCAR-8 > 100 µM | OVCAR-5 > 100 µM | Hs-578T > 100 µM | Malme-3M > 100 µM | HCT-116 > 100 µM | RPMI-8226 > 100 µM | HOP-62 > 100 µM | NCI-H23 > 100 µM | HL-60 > 100 µM | SF-295 > 100 µM

O=C1OC(CS(=O)(=O)c2ccccc2)CC1O (stereo not given)
> 100 µM: HCT-15
inactive: SR > 100 µM | HCC 2998 > 100 µM | MOLT-4 > 100 µM | SK-MEL-28 > 100 µM | IGROV-1 > 100 µM | NCI-H522 53.1 µM | U-251 > 100 µM | MDA-MB-231 > 100 µM | PC-3 > 100 µM | NCI-H460 > 100 µM | OVCAR-3 > 100 µM | BT-549 72.8 µM | UACC-62 41 µM | RXF 393 > 100 µM | SK-MEL-2 > 100 µM | UO-31 55.6 µM | SNB-19 > 100 µM | SF-539 > 100 µM | OVCAR-4 > 100 µM | UACC-257 > 100 µM | EKVX > 100 µM | ACHN > 100 µM | TK-10 > 100 µM | SN12C > 100 µM | LOX IMVI > 100 µM | CCRF-CEM > 100 µM | KM12 > 100 µM | SK-OV-3 > 100 µM | A549 > 100 µM | SF-268 > 100 µM | 786-0 > 100 µM | NCI/ADR-RES > 100 µM | DU-145 > 100 µM | K562 > 100 µM | MDA-MB-435 > 100 µM | HT-29 > 100 µM | A498 > 100 µM | NCI-H226 > 100 µM | MCF7 > 100 µM | SK-MEL-5 > 100 µM | SW-620 > 100 µM | M14 > 100 µM | COLO 205 > 100 µM | MDA-N > 100 µM | OVCAR-8 > 100 µM | OVCAR-5 > 100 µM | Malme-3M 22.6 µM | CAKI-1 > 100 µM | HCT-116 > 100 µM | RPMI-8226 > 100 µM | HOP-62 > 100 µM | NCI-H23 > 100 µM | SF-295 > 100 µM
